# Calls of active or inactive are those of the source. The rule behind the calls is not given here.
# Legend:
# [1] = Viability of human neutrophils by trypan blue assay at 500 uM; type: functional, Neutrophil
# Neutrophil [2] = experiment: Inhibition of superoxide production in human neutrophils; type: functional, cell-based
# HL-60 = experiment: Antiproliferative activity against HL60 cells by MTT assay; type: functional, cell-based; details: Homo sapiens
# Neutrophil [3] = experiment: Inhibition of PMA-induced adhesion of neutrophils; type: functional, cell-based; details: Homo sapiens
structure (smiles),measurement,setting,value
O=C1O/C(=C\c2ccc(O)c(Br)c2)C(c2cc(Br)c(O)c(Br)c2)=C1Cl [RUBROLIDE O],Activity,[1],87%
same,IC50,Neutrophil [2],35 µM
same,IC50,HL-60,33 µM
same,Activity,Neutrophil [3],Active

# From ChEMBL document CHEMBL1139211, “E/Z-rubrolide O, an anti-inflammatory halogenated furanone from the New Zealand ascidian Synoicum n. sp” (J Nat Prod, 2007)
